Experimental data published in patent publication US4063022A, “Antisecretory 2-imidazolidinones” (Morton-Norwich Products, Inc., priority 1976, dated 1977).

Test system: gastric acid secretion
Assay: modified standard pylorus-ligated secretory testing procedure in the rat
Assay type: in vivo, Sprague-Dawley rats
Details: 300 mg/kg p.o. 1 hr prior to pylorus ligation, 4 hrs after ligation; for % of Control Vol. of Gastric Secretion: control 0.5% Methocel; for % of Control Gastric Acid Output: titration to pH 7, control 0.5% Methocel
Procedure: Such effect is evidenced using a modified standard pyloruslighted secretory testing procedure in the rat. Sprague-Dawley rats, weighing […] and previously fasted for 24 hrs, were used. All compounds were given perorally as suspensions in 0.5% Methocel 1 hr prior to pylorus ligation. Under light ether anesthesia, the rat stomach was ligated at the pylorus region. Four hrs after ligation the conscious rat was sacrificed by a chloroform overdose. The stomach was carefully excised and its content drained into a centrifuge tube. Samples were centrifuged to separate secretions from debris. Gastric fluid volume reading and determination of sample contamination, based on debris and sample color, was made. Titration was performed on a sample aliquot of 1 ml diluted to a volume of 5 ml using distilled water. The titrant used was 0.1N NaOH. Total gastric acid output in the stomach was determined by titration to ph 7. A dose of 300 mg/kg p.o. of a compound was administered to a group of rats and its effect on the volume of gastric secretion and acid output compared to a control group receiving 0.5% Methocel p.o. The activity of each compound based on the degree of inhibition of gastric acid output is set forth in Table I.

Q: What does the source list for `O=C1NCCN1Cc1ccc(Cl)c(C(F)(F)F)c1` [Example 11-C, 1-(4-Chloro-3-trifluoromethylbenzyl)-2-imidazolidinone]?
A: % of Control Vol. of Gastric Secretion: 23.0 % of Control; % of Control Gastric Acid Output: 16.8 % of Control

Q: `CN1CCN(Cc2ccc(Cl)c(Cl)c2)C1=O` [I-B, 1-(3,4-Dichlorobenzyl)-3-methyl-2-imidazolidinone] was tested. Which “% of Control Vol. of Gastric Secretion” value did it give?
A: Its value is 39.2 % of Control.

Q: And the “% of Control Gastric Acid Output” value?
A: Its value is 8.9 % of Control.
